Patent US8952024B2, “Herbicidal pyrimidone derivatives” (E I du Pont de Nemours and Company, priority 2009, dated 2015)

Columns and labels:
Assay in all cases: Test D pre-/postemergence plant response
Format in all cases: in vivo
[1] = tested on: green foxtail (Setaria viridis)
Summary of the method: (§1)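 Ratings come from greenhouse-grown weeds in loam and sand treated pre- or postemergence (postemergence height 2 to 18 cm). Evaluation after 14–21 days, visual, relative to controls, on a 0–100 control scale.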

[2] = tested on: Surinam grass (Brachiaria decumbens)
Summary of the method: as §1

[3] = tested on: signalgrass (broadleaf signalgrass, Brachiaria platyphylla)
Summary of the method: as §1

kochia (Kochia scoparia) = tested on: kochia (Kochia scoparia)
Summary of the method: as §1

[4] = tested on: bluegrass (annual bluegrass, Poa annua)
Summary of the method: as §1

[5] = tested on: spanishneedles (Bidens bipinnata)
Summary of the method: as §1

[6] = tested on: johnsongrass (Sorghum halepense)
Summary of the method: as §1

[7] = tested on: bermudagrass (Cynodon dactylon)
Summary of the method: as §1

[8] = tested on: itchgrass (Rottboellia cochinchinensis)
Summary of the method: as §1

[9] = tested on: goosegrass (Eleusine indica)
Summary of the method: as §1

[10] = tested on: dallisgrass (Paspalum dilatatum)
Summary of the method: as §1

[11] = tested on: mallow (common mallow, Malva sylvestris)
Summary of the method: as §1

[12] = tested on: chickweed (common chickweed, Stellaria media)
Summary of the method: as §1

[13] = tested on: sowthistle (common sowthistle, Sonchus oleraceous)
Summary of the method: as §1

[14] = tested on: dayflower (Virginia (VA) dayflower, Commelina virginica)
Summary of the method: as §1

[15] = tested on: purslane (common purslane, Portulaca oleracea)
Summary of the method: as §1

[16] = tested on: barnyardgrass (Echinochloa crus-galli)
Summary of the method: as §1

[17] = Postemergence, 31 g ai/ha, scale 0 to 100
[18] = Postemergence, 62 g ai/ha, scale 0 to 100 (0 no effect, 100 complete control)
[19] = Postemergence, 125 g ai/ha, scale 0 to 100 (0 no effect, 100 complete control)
[20] = Postemergence, 16 g ai/ha, scale 0 to 100
[21] = Preemergence, 16 g ai/ha, scale 0 to 100, 0 no effect, 100 complete control
[22] = Preemergence, 31 g ai/ha, scale 0 to 100 (0 no effect, 100 complete control)
[23] = Preemergence, 62 g ai/ha, scale 0 to 100
[24] = Preemergence, 125 g ai/ha, scale 0 to 100
[25] = Postemergence, 31 g ai/ha, scale 0 to 100 (0 no effect, 100 complete control)

For `COCCn1c(-c2ccccc2)ncc(C(=O)C2=C(O)CCCC2=O)c1=O` [Compound 85], the “Plant response rating, Foxtail, Green” value [1, 17] was 25, the “Plant response rating, Foxtail, Green” value [1, 18] was 35 and the “Plant response rating, Foxtail, Green” value [1, 19] was 65. The “Plant response rating, Foxtail, Green” value [1, 20] was 20, the “Plant response rating, Foxtail, Green” value [1, 21] was 0 and the “Plant response rating, Foxtail, Green” value [1, 22] was 5. The “Plant response rating, Foxtail, Green” value [1, 23] was 40, the “Plant response rating, Foxtail, Green” value [1, 24] was 70 and the “Plant response rating, Surinam Grass” value [2, 17] was 75. The “Plant response rating, Surinam Grass” value [2, 18] was 75, the “Plant response rating, Surinam Grass” value [2, 19] was 85 and the “Plant response rating, Surinam Grass” value [2, 21] was 98. The “Plant response rating, Surinam Grass” value [2, 22] was 100, the “Plant response rating, Surinam Grass” value [2, 24] was 100 and the “Plant response rating, Signalgrass” value [3, 17] was 35. For the same compound, the “Plant response rating, Signalgrass” value [3, 18] was 60, the “Plant response rating, Signalgrass” value [3, 19] was 75 and the “Plant response rating, Signalgrass” value [3, 20] was 20. For the same compound, the “Plant response rating, Signalgrass” value [3, 21] was 5, the “Plant response rating, Signalgrass” value [3, 22] was 60 and the “Plant response rating, Signalgrass” value [3, 24] was 95. For the same compound, the “Plant response rating, Kochia” value (kochia (Kochia scoparia); [17]) was 10, the “Plant response rating, Kochia” value (kochia (Kochia scoparia); [18]) was 20 and the “Plant response rating, Kochia” value (kochia (Kochia scoparia); [19]) was 60. The “Plant response rating, Kochia” value (kochia (Kochia scoparia); [20]) was 0, the “Plant response rating, Kochia” value (kochia (Kochia scoparia); [21]) was 5 and the “Plant response rating, Kochia” value (kochia (Kochia scoparia); [22]) was 20. The “Plant response rating, Kochia” value (kochia (Kochia scoparia); [23]) was 75, the “Plant response rating, Kochia” value (kochia (Kochia scoparia); [24]) was 95 and the “Plant response rating, Bluegrass” value [4, 25] was 0. The “Plant response rating, Bluegrass” value [4, 18] was 5, the “Plant response rating, Bluegrass” value [4, 19] was 5 and the “Plant response rating, Bluegrass” value [4, 20] was 0. For the same compound, the “Plant response rating, Bluegrass” value [4, 21] was 0, the “Plant response rating, Bluegrass” value [4, 22] was 0 and the “Plant response rating, Bluegrass” value [4, 23] was 0. The “Plant response rating, Bluegrass” value [4, 24] was 15, the “Plant response rating, Spanishneedles” value [5, 17] was 75 and the “Plant response rating, Spanishneedles” value [5, 18] was 90. The “Plant response rating, Spanishneedles” value [5, 19] was 95, the “Plant response rating, Spanishneedles” value [5, 20] was 75 and the “Plant response rating, Spanishneedles” value [5, 21] was 90. The “Plant response rating, Spanishneedles” value [5, 22] was 98, the “Plant response rating, Spanishneedles” value [5, 24] was 100 and the “Plant response rating, Spanishneedles” value ([5]; Preemergence, rate not given, scale 0 to 100, 0 no effect, 100 complete control) was 98. For the same compound, the “Plant response rating, Johnsongrass” value [6, 17] was 50, the “Plant response rating, Johnsongrass” value [6, 18] was 80 and the “Plant response rating, Johnsongrass” value [6, 19] was 80. For the same compound, the “Plant response rating, Johnsongrass” value [6, 20] was 35, the “Plant response rating, Johnsongrass” value [6, 21] was 50 and the “Plant response rating, Johnsongrass” value [6, 22] was 65. The “Plant response rating, Johnsongrass” value [6, 23] was 80, the “Plant response rating, Johnsongrass” value [6, 24] was 95 and the “Plant response rating, Bermudagrass” value [7, 25] was 75. The “Plant response rating, Bermudagrass” value [7, 18] was 80, the “Plant response rating, Bermudagrass” value [7, 19] was 90 and the “Plant response rating, Bermudagrass” value [7, 20] was 65. The “Plant response rating, Bermudagrass” value [7, 21] was 80, the “Plant response rating, Bermudagrass” value [7, 22] was 100 and the “Plant response rating, Bermudagrass” value [7, 23] was 100. For the same compound, the “Plant response rating, Bermudagrass” value [7, 24] was 100, the “Plant response rating, Itchgrass” value [8, 17] was 35 and the “Plant response rating, Itchgrass” value [8, 18] was 65. For the same compound, the “Plant response rating, Itchgrass” value [8, 19] was 70, the “Plant response rating, Itchgrass” value [8, 20] was 30 and the “Plant response rating, Itchgrass” value [8, 21] was 10. The “Plant response rating, Itchgrass” value [8, 22] was 15, the “Plant response rating, Itchgrass” value [8, 23] was 35 and the “Plant response rating, Itchgrass” value [8, 24] was 50. For the same compound, the “Plant response rating, Goosegrass” value [9, 17] was 65, the “Plant response rating, Goosegrass” value [9, 18] was 75 and the “Plant response rating, Goosegrass” value [9, 19] was 75. The “Plant response rating, Goosegrass” value [9, 20] was 40, the “Plant response rating, Goosegrass” value [9, 21] was 65 and the “Plant response rating, Goosegrass” value [9, 22] was 75. The “Plant response rating, Goosegrass” value [9, 23] was 75, the “Plant response rating, Goosegrass” value [9, 24] was 98 and the “Plant response rating, Dallisgrass” value [10, 17] was 25. The “Plant response rating, Dallisgrass” value [10, 18] was 65, the “Plant response rating, Dallisgrass” value [10, 19] was 80 and the “Plant response rating, Dallisgrass” value [10, 20] was 15. For the same compound, the “Plant response rating, Dallisgrass” value [10, 21] was 50, the “Plant response rating, Dallisgrass” value [10, 22] was 80 and the “Plant response rating, Dallisgrass” value [10, 23] was 95. The “Plant response rating, Dallisgrass” value [10, 24] was 98, the “Plant response rating, Mallow” value [11, 17] was 65 and the “Plant response rating, Mallow” value [11, 18] was 70. For the same compound, the “Plant response rating, Mallow” value [11, 19] was 75, the “Plant response rating, Mallow” value [11, 20] was 60 and the “Plant response rating, Mallow” value [11, 21] was 80. The “Plant response rating, Mallow” value [11, 23] was 95, the “Plant response rating, Mallow” value [11, 24] was 98 and the “Plant response rating, Chickweed” value [12, 17] was 80. For the same compound, the “Plant response rating, Chickweed” value [12, 18] was 100, the “Plant response rating, Chickweed” value [12, 19] was 100 and the “Plant response rating, Chickweed” value [12, 21] was 90. For the same compound, the “Plant response rating, Chickweed” value [12, 22] was 100, the “Plant response rating, Chickweed” value [12, 23] was 100 and the “Plant response rating, Chickweed” value [12, 24] was 100. The “Plant response rating, Sowthistle” value [13, 17] was 100, the “Plant response rating, Sowthistle” value [13, 18] was 100 and the “Plant response rating, Sowthistle” value [13, 19] was 100. For the same compound, the “Plant response rating, Sowthistle” value [13, 20] was 100, the “Plant response rating, Sowthistle” value [13, 21] was 100 and the “Plant response rating, Sowthistle” value [13, 22] was 100. The “Plant response rating, Sowthistle” value [13, 24] was 100, the “Plant response rating, Dayflower, VA” value [14, 17] was 30 and the “Plant response rating, Dayflower, VA” value [14, 18] was 60. For the same compound, the “Plant response rating, Dayflower, VA” value [14, 19] was 80, the “Plant response rating, Dayflower, VA” value [14, 20] was 20 and the “Plant response rating, Dayflower, VA” value [14, 21] was 5. The “Plant response rating, Dayflower, VA” value [14, 22] was 10, the “Plant response rating, Dayflower, VA” value [14, 23] was 90 and the “Plant response rating, Dayflower, VA” value [14, 24] was 95. The “Plant response rating, Purslane” value [15, 17] was 80, the “Plant response rating, Purslane” value [15, 18] was 90 and the “Plant response rating, Purslane” value [15, 19] was 90. The “Plant response rating, Purslane” value [15, 20] was 75, the “Plant response rating, Purslane” value [15, 21] was 80 and the “Plant response rating, Purslane” value [15, 22] was 100. For the same compound, the “Plant response rating, Purslane” value [15, 23] was 100, the “Plant response rating, Purslane” value [15, 24] was 100 and the “Plant response rating, Barnyardgrass” value [16, 25] was 50. The “Plant response rating, Barnyardgrass” value [16, 18] was 65, the “Plant response rating, Barnyardgrass” value [16, 19] was 70 and the “Plant response rating, Barnyardgrass” value [16, 20] was 30. The “Plant response rating, Barnyardgrass” value [16, 21] was 60, the “Plant response rating, Barnyardgrass” value [16, 22] was 75 and the “Plant response rating, Barnyardgrass” value [16, 23] was 95. The “Plant response rating, Barnyardgrass” value [16, 24] was 98.
